Minimal effective concentration data for 19 molecules are collected here from patent US20240270695A1, “COMPOUNDS, COMPOSITIONS AND METHODS OF TREATING DISORDERS” (Chengdu Anticancer Bioscience LTD, priority 2021, published 2024).

The test system of assay [1] is RPE-Neo or RPE-MYC or RPE-MYC expressing an EGFP-Histone 2B fusion protein. Description: Phenotypic screening assay (arrest in mitosis, change in DNA content, cell death; GE IN-Cell Analyzer 2000). It is filed as cell-based. The following applies: Homo sapiens, compounds 20 nM to 20 μM, 24, 48 or 72 hours.
Assay [2] has the same test system. Put plainly: MTT assays of cellular proliferation. It is filed as cell-based. The following applies: Homo sapiens, min. effective conc., read-out: Proliferative arrest (<50%).
Setting [3] is: read-out: Min. Effective conc. for Polyploidy (≥10%).
Setting [4] is: min. effective conc., read-out: Cell Death (>30%).
The mark [5] stands for this setting: min. effective conc., read-out: Mitotic Arrest (≥10%).

`CNC(=O)C1=C(O)c2ccccc2N(Cc2ccc(C)c(Cl)c2)C(=O)C1` [Example 119, 1-(3-chloro-4-methylbenzyl)-5-hydroxy-N-methyl-2-oxo-2,3-dihydro-1H-benzo[b]azepine-4-carboxamide]: the minimal effective concentration in assay [1] (setting [3]), in assay [1] (setting [4]), in assay [1] (setting [5]) and in assay [2] was 10 to 30 µM throughout.
Consider `CNC(=O)C1=C(O)c2ccccc2N(Cc2ccc(C)c(Br)c2)C(=O)C1` [Example 120], for which the minimal effective concentration in assay [1] (setting [3]), in assay [1] (setting [4]), in assay [1] (setting [5]) and in assay [2] was 10 to 30 µM each time.
On to `CNC(=O)C1=C(O)c2ccccc2N(Cc2cc(C)c(F)c(C)c2)C(=O)C1` [Example 121, 1-(4-fluoro-3,5-dimethylbenzyl)-5-hydroxy-N-methyl-2-oxo-2,3-dihydro-1H-benzo[b]azepine-4-carboxamide], for which the minimal effective concentration in assay [1] (setting [3]), in assay [1] (setting [4]), in assay [1] (setting [5]) and in assay [2] was 10 to 30 µM each time.
As to `CNC(=O)C1=C(O)c2ccccc2N(Cc2cc(F)c(OC)c(F)c2)C(=O)C1` [Example 122, 1-(3,5-difluoro-4-methoxybenzyl)-5-hydroxy-N-methyl-2-oxo-2,3-dihydro-1H-benzo[b]azepine-4-carboxamide], the minimal effective concentration in assay [1] (setting [3]), in assay [1] (setting [4]), in assay [1] (setting [5]) and in assay [2] was 30 to 1000 µM in each case.
As to `CNC(=O)C1=C(O)c2ccccc2N(Cc2ccc(OC)c(C(F)(F)F)c2)C(=O)C1` [Example 123, 5-hydroxy-1-(4-methoxy-3-(trifluoromethyl)benzyl)-N-methyl-2-oxo-2,3-dihydro-1H-benzo[b]azepine-4-carboxamide], the minimal effective concentration in assay [1] (setting [3]), in assay [1] (setting [4]), in assay [1] (setting [5]) and in assay [2] was 30 to 1000 µM in each case.
For `CNC(=O)C1=C(O)c2ccccc2N(Cc2ccc(Cl)c(F)c2)C(=O)C1` [Example 124, 1-(4-chloro-3-fluorobenzyl)-5-hydroxy-N-methyl-2-oxo-2,3-dihydro-1H-benzo[b]azepine-4-carboxamide], the minimal effective concentration in assay [1] (setting [3]), in assay [1] (setting [4]), in assay [1] (setting [5]) and in assay [2] was 1 to 10 µM in each case.
For `CNC(=O)C1=C(O)c2ccccc2N(Cc2ccc(Br)c(F)c2)C(=O)C1` [Example 125, 1-(4-bromo-3-fluorobenzyl)-5-hydroxy-N-methyl-2-oxo-2,3-dihydro-1H-benzo[b]azepine-4-carboxamide], the minimal effective concentration in assay [1] (setting [3]), in assay [1] (setting [4]), in assay [1] (setting [5]) and in assay [2] was 1 to 10 µM in each case.
As for `CNC(=O)C1=C(O)c2ccc(OC)cc2N(Cc2ccc(C)c(F)c2)C(=O)C1` [Example 127, 1-(3-fluoro-4-methylbenzyl)-5-hydroxy-8-methoxy-N-methyl-2-oxo-2,3-dihydro-1H-benzo[b]azepine-4-carboxamide], the minimal effective concentration in assay [1] (setting [3]), in assay [1] (setting [4]), in assay [1] (setting [5]) and in assay [2] was 0.001 to 1 µM in each case.
On to `CCOc1ccc2c(c1)N(Cc1ccc(C)c(F)c1)C(=O)CC(C(=O)NC)=C2O` [Example 128, 8-ethoxy-1-(3-fluoro-4-methylbenzyl)-5-hydroxy-N-methyl-2-oxo-2,3-dihydro-1H-benzo[b]azepine-4-carboxamide], for which the minimal effective concentration in assay [1] (setting [3]), in assay [1] (setting [4]), in assay [1] (setting [5]) and in assay [2] was 1 to 10 µM each time.
Regarding `CNC(=O)C1=C(O)c2ccc(OC(F)F)cc2N(Cc2ccc(C)c(F)c2)C(=O)C1` [Example 129, 8-(difluoromethoxy)-1-(3-fluoro-4-methylbenzyl)-5-hydroxy-N-methyl-2-oxo-2,3-dihydro-1H-benzo[b]azepine-4-carboxamide], the minimal effective concentration in assay [1] (setting [3]), in assay [1] (setting [4]), in assay [1] (setting [5]) and in assay [2] was 0.001 to 1 µM in each case.
With `CNC(=O)C1=C(O)c2ccc(Br)cc2N(Cc2ccc(F)c(C)c2)C(=O)C1` [Example 132, 8-bromo-1-(4-fluoro-3-methylbenzyl)-5-hydroxy-N-methyl-2-oxo-2,3-dihydro-1H-benzo[b]azepine-4-carboxamide], the minimal effective concentration in assay [1] (setting [3]), in assay [1] (setting [4]), in assay [1] (setting [5]) and in assay [2] was 1 to 10 µM each time.
In the case of `CNC(=O)C1=C(O)c2ccc(OCc3ccc(OC)c(F)c3)cc2N(Cc2ccc(C)c(F)c2)C(=O)C1` [Example 133, 8-((3-fluoro-4-methoxybenzyl)oxy)-1-(3-fluoro-4-methylbenzyl)-5-hydroxy-N-methyl-2-oxo-2,3-dihydro-1H-benzo[b]azepine-4-carboxamide], the minimal effective concentration in assay [1] (setting [3]), in assay [1] (setting [4]), in assay [1] (setting [5]) and in assay [2] was 1 to 10 µM throughout.
As to `CNC(=O)C1=C(O)c2ccc(OCc3ccsc3)cc2N(Cc2ccc(C)c(F)c2)C(=O)C1` [Example 134, 1-(3-fluoro-4-methylbenzyl)-5-hydroxy-N-methyl-2-oxo-8-(thiophen-3-ylmethoxy)-2,3-dihydro-1H-benzo[b]azepine-4-carboxamide], the minimal effective concentration in assay [1] (setting [3]), in assay [1] (setting [4]), in assay [1] (setting [5]) and in assay [2] was 1 to 10 µM each time.
With `CNC(=O)C1=C(O)c2cc(F)ccc2N(Cc2ccc(C)c(F)c2)C(=O)C1` [Example 135, 7-fluoro-1-(3-fluoro-4-methylbenzyl)-5-hydroxy-N-methyl-2-oxo-2,3-dihydro-1H-benzo[b]azepine-4-carboxamide], the minimal effective concentration in assay [1] (setting [3]), in assay [1] (setting [4]), in assay [1] (setting [5]) and in assay [2] was 1 to 10 µM throughout.
In the case of `CNC(=O)C1=C(O)c2cc(C)ccc2N(Cc2ccc(C)c(F)c2)C(=O)C1` [Example 136, 1-(3-fluoro-4-methylbenzyl)-5-hydroxy-N,7-dimethyl-2-oxo-2,3-dihydro-1H-benzo[b]azepine-4-carboxamide], the minimal effective concentration in assay [1] (setting [3]), in assay [1] (setting [4]), in assay [1] (setting [5]) and in assay [2] was 1 to 10 µM each time.
Turning to `CNC(=O)C1=C(O)c2cc(OC)ccc2N(Cc2ccc(C)c(F)c2)C(=O)C1` [Example 137, 1-(3-fluoro-4-methylbenzyl)-5-hydroxy-7-methoxy-N-methyl-2-oxo-2,3-dihydro-1H-benzo[b]azepine-4-carboxamide], the minimal effective concentration in assay [1] (setting [3]), in assay [1] (setting [4]), in assay [1] (setting [5]) and in assay [2] was 1 to 10 µM each time.
Take `CNC(=O)C1=C(O)c2ccc(-c3cnn(C)c3)cc2N(Cc2ccc(C)c(F)c2)C(=O)C1` [Example 138, 1-(3-fluoro-4-methylbenzyl)-5-hydroxy-N-methyl-8-(1-methyl-1H-pyrazol-4-yl)-2-oxo-2,3-dihydro-1H-benzo[b]azepine-4-carboxamide]: the minimal effective concentration in assay [1] (setting [3]), in assay [1] (setting [4]), in assay [1] (setting [5]) and in assay [2] was 1 to 10 µM in each case.
In the case of `CNC(=O)C1=C(O)c2ccc(C#N)cc2N(Cc2ccc(C)c(F)c2)C(=O)C1` [Example 139], the minimal effective concentration in assay [1] (setting [3]), in assay [1] (setting [4]), in assay [1] (setting [5]) and in assay [2] was 1 to 10 µM in each case.
Take `COc1ccc2c(c1)N(Cc1ccc(C)c(F)c1)C(=O)CC(C(=O)C1CC1)=C2O` [Example 141, 4-(cyclopropanecarbonyl)-1-(3-fluoro-4-methylbenzyl)-5-hydroxy-8-methoxy-1,3-dihydro-2H-benzo[b]azepin-2-one]: the minimal effective concentration in assay [1] (setting [3]), in assay [1] (setting [4]), in assay [1] (setting [5]) and in assay [2] was 0.001 to 1 µM throughout.
